B1: EclA-N-tag, N-terminally His6-tagged EclA N terminus (amino acids 2-140) (domain or fragment)
chain: AKFFATLSQESDASENLIWSGKVDAKNAEGTNTGVALKAGEIITILASGWARNGSENFALTAPQGRIPREGETLTLRNPSLQARLGNENYPVGNHKYRWSVPAEGTLTLFFADGKDQYKDNAGEFSVEVYREADISAAA
notes: EclA, E. cloacae subsp. cloacae ATCC 13047, residues 2-140, based on EclA-L (M14A); also called N-terminal domain of EclA; not shown: His6, N-terminal, kept
B2: EclA-C, native EclA C terminus (amino acids 140-283) (domain or fragment)
chain: MAAPFEDLTNFERDNWNNWQAGPAGHDLYLVDASTRAVEFITRPNKNHAGEILKKTLTGLTAGYEYTWTVKIARIIGKYEAPKVSLRADGKDISAPLELKQANEWVTLSGKFKATGSQAELAVVSHVSASMGNDFRIKELKIKG
notes: EclA, E. cloacae subsp. cloacae ATCC 13047, stated as amino acids 140-283 (144 aa); Tag-free; a selenomethionine-labelled form was also crystallised; also called C-terminal domain of EclA; source: E. coli BL21(DE3), purified (fucose-coupled sepharose, L-fucose elution)
B3: EclA-L (EclA-M14A), full-length Enterobacter cloacae lectin A with the second start codon mutated (natural protein)
chain: MAKFFATLSQESDASENLIWSGKVDAKNAEGTNTGVALKAGEIITILASGWARNGSENFALTAPQGRIPREGETLTLRNPSLQARLGNENYPVGNHKYRWSVPAEGTLTLFFADGKDQYKDNAGEFSVEVYREADISAAAAAPFEDLTNFERDNWNNWQAGPAGHDLYLVDASTRAVEFITRPNKNHAGEILKKTLTGLTAGYEYTWTVKIARIIGKYEAPKVSLRADGKDISAPLELKQANEWVTLSGKFKATGSQAELAVVSHVSASMGNDFRIKELKIKG
notes: EclA (Enterobacter cloacae lectin A), E. cloacae subsp. cloacae ATCC 13047, ECL_04191, 283 aa, with M14A; Tag-free, pET22b; Made to have one protein species only (second ATG at codon 14 removed); also called EclA-L (M14A); source: E. coli, expressed and purified as reported for EclA

Assays:
[1] = molecular target: T1, Enterobacter cloacae lectin A (EclA) (Enterobacter cloacae, UniProt A0A0H3CQ33); assay: competitive fluorescence polarization; thermal shift (Tm […] to […] °C); format: binding; parameters: gene ECL_04191; full-length EclA and EclA-C (amino acids 140–283)
[2] = molecular target: T1, Enterobacter cloacae lectin A (EclA); assay: competitive fluorescence polarization displacement of […]; format: binding; parameters: gene ECL_04191; full-length EclA and EclA-C (amino acids 140–283)
[3] = molecular target: the molecule itself; assay: dynamic light scattering; Zetasizer Nano-ZS; 100 uM EclA-L or 200 uM EclA-N-tag and EclA-C in TBS/Ca (20 mM Tris, 137 mM NaCl, 2.6 mM KCl, pH 7.4, 1 mM CaCl2), 25 C; molecular weight estimated from the hydrodynamic radius

T1 sequence (A0A0H3CQ33 entry or part of it): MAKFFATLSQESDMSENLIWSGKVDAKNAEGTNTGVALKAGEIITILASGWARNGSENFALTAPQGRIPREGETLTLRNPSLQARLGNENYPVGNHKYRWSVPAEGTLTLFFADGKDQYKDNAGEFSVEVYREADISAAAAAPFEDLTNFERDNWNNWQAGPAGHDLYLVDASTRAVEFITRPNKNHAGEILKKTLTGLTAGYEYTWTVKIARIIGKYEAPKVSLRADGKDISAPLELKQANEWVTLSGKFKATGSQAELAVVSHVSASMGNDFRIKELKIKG

Molecule	IC50 [2] [mM]	stoichiometry N [3]	further results
C[C@@H]1OC(O)[C@@H](O)[C@H](O)[C@@H]1O (stereo partly drawn) [compound 1, L-fucose]			IC50 [1]: 4 to 4.7 mM
CO[C@@H]1O[C@@H](C)[C@@H](O)[C@@H](O)[C@@H]1O [compound 12, methyl α-L-fucoside]	1.3 to 1.4		
CO[C@H]1O[C@@H](C)[C@@H](O)[C@@H](O)[C@@H]1O [compound 13, methyl β-L-fucoside]	1.5 to 1.8		
B1		2	
B2		2	
B3		2	
